# Measurements taken from publication PMC9719519, “Non-classical ferroptosis inhibition by a small molecule targeting PHB2” (Nature Communications, 2022).
# What was measured:
# Assay in all cases: biochemical
# Set-up in all cases: Eurofins recombinant human kinase profiling, remaining kinase activity as % of control, 10 uM ATP
# Conditions in all cases: ATP 10 uM; read-out: %Ctrl@10 μM
# AMPKα2(h) = biological target: T1, AMPKα2(h) (Homo sapiens, UniProt P54646)
# T1 construct: gene PRKAA2
# Description: (§1) To rapidly determine the biological target of YL-939, we first tested the activity of YL-939 against a panel of 401 recombinant human protein kinases by using the kinase profiling assay provided by Eurofins, since kinases are often the key components in various signal pathways[35],[36]. […] We then carried out affinity-based proteome profiling assay (ABPP) coupled with bioimaging to identify the biological target of YL-939 (Fig. 4A). To this end, we designed and synthesized a photoaffinity probe, YL-939-1 (Fig. 4A and Supplementary Fig. 5), which is YL-939 attached by a photo-crosslinker (L3) that contains a photo-reactive group diazirine and a clickable alkyne handle.
# Abl(Y253F)(h) = biological target: T2, Abl(Y253F)(h) (Homo sapiens, UniProt P00519, Y253F)
# T2 construct: gene ABL1
# Description: as §1
# CK1δ(h) = biological target: T3, CK1δ(h) (Homo sapiens, UniProt P48730)
# T3 construct: gene CSNK1D
# Description: as §1
# CK1ε(h) = biological target: T4, CK1ε(h) (Homo sapiens, UniProt P49674)
# T4 construct: gene CSNK1E
# Description: as §1
# CSK(h) = CSK(h) (Homo sapiens, UniProt P41240)
# Description: as §1
# CaMKIIβ(h) = biological target: T5, CaMKIIβ(h) (Homo sapiens, UniProt Q13554)
# T5 construct: gene CAMK2B
# Description: as §1
# DAPK2(h) = DAPK2(h) (Homo sapiens, UniProt Q9UIK4)
# Description: as §1
# DDR1(h) = DDR1(h) (Homo sapiens, UniProt Q08345)
# Description: as §1
# DMPK(h) = DMPK(h) (Homo sapiens, UniProt Q09013)
# Description: as §1
# EphB2(h) = EphB2(h) (Homo sapiens, UniProt P29323)
# Description: as §1
# Flt3(h) = Flt3(h) (Homo sapiens, UniProt P36888)
# Description: as §1
# GRK1(h) = GRK1(h) (Homo sapiens, UniProt Q15835)
# Description: as §1
# Hck(h) = Hck(h) (Homo sapiens, UniProt P08631)
# Description: as §1
# LOK(h) = biological target: T6, LOK(h) (Homo sapiens, UniProt O94804)
# T6 construct: gene STK10
# Description: as §1
# Lck(h) = Lck(h) (Homo sapiens, UniProt P06239)
# Description: as §1
# MAP4K5(h) = MAP4K5(h) (Homo sapiens, UniProt Q9Y4K4)
# Description: as §1
# MELK(h) = MELK(h) (Homo sapiens, UniProt Q14680)
# Description: as §1
# MRCKβ(h) = biological target: T7, MRCKβ(h) (Homo sapiens, UniProt Q9Y5S2)
# T7 construct: gene CDC42BPB
# Description: as §1
# NIM1(h) = biological target: T8, NIM1(h) (Homo sapiens, UniProt Q8IY84)
# T8 construct: gene NIM1K
# Description: as §1
# PKG1α(h) = biological target: T9, PKG1α(h) (Homo sapiens, UniProt Q13976)
# T9 construct: gene PRKG1; isoform 1alpha
# Description: as §1
# PKR(h) = biological target: T10, PKR(h) (Homo sapiens, UniProt P19525)
# T10 construct: gene EIF2AK2
# Description: as §1
# Ret (V804L)(h) = Ret (V804L)(h) (Homo sapiens, UniProt P07949, V804L)
# Description: as §1
# WNK1(h) = WNK1(h) (Homo sapiens, UniProt Q9H4A3)
# Description: as §1
# Sequence of Flt3(h) (P36888 whole entry): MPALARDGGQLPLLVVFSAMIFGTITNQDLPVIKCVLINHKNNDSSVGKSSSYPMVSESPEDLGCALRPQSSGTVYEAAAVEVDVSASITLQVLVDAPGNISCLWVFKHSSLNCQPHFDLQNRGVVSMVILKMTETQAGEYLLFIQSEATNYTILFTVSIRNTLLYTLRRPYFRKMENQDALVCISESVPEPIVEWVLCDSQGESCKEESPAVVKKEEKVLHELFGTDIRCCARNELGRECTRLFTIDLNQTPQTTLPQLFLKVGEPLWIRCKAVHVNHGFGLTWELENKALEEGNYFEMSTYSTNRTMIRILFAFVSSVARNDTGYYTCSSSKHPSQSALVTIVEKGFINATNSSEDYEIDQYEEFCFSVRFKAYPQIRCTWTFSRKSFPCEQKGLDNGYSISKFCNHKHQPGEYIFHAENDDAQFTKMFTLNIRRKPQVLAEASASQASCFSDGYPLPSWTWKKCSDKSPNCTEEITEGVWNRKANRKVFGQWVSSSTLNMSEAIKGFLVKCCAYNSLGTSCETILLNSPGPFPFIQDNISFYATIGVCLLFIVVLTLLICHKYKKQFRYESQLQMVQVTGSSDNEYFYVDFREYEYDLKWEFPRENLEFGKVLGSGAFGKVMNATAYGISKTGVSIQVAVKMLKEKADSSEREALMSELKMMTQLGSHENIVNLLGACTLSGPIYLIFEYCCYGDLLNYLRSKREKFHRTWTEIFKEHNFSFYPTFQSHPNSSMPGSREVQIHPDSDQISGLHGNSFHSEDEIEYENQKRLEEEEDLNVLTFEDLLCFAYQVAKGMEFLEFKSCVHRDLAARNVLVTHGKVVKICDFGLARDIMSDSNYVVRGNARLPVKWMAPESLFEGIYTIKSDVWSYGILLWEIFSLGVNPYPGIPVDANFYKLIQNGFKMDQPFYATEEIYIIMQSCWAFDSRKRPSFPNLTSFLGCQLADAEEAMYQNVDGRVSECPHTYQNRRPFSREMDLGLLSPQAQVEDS
# Sequence of DAPK2(h) (Q9UIK4 whole entry): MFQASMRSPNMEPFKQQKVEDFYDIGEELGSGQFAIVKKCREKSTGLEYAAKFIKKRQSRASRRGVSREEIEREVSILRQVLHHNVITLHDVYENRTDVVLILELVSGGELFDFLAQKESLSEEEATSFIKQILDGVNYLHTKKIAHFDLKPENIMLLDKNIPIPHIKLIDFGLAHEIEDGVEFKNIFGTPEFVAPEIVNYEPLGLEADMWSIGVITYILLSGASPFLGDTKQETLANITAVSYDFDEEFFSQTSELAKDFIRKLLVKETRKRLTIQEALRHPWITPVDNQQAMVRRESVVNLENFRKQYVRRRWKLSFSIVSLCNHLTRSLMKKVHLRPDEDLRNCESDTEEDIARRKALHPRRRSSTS
# Sequence of CSK(h) (P41240 whole entry): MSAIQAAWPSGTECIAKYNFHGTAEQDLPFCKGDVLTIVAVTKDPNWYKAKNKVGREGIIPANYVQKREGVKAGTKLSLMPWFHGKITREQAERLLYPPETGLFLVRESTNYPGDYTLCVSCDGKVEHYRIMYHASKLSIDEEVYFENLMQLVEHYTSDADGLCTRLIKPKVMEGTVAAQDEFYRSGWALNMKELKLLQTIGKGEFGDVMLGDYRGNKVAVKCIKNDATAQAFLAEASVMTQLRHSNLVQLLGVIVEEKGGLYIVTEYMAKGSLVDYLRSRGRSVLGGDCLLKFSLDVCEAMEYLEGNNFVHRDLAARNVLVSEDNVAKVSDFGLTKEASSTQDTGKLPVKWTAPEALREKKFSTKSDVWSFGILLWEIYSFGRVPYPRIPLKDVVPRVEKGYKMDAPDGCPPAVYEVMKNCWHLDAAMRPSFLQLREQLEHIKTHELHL
# Sequence of MELK(h) (Q14680 whole entry): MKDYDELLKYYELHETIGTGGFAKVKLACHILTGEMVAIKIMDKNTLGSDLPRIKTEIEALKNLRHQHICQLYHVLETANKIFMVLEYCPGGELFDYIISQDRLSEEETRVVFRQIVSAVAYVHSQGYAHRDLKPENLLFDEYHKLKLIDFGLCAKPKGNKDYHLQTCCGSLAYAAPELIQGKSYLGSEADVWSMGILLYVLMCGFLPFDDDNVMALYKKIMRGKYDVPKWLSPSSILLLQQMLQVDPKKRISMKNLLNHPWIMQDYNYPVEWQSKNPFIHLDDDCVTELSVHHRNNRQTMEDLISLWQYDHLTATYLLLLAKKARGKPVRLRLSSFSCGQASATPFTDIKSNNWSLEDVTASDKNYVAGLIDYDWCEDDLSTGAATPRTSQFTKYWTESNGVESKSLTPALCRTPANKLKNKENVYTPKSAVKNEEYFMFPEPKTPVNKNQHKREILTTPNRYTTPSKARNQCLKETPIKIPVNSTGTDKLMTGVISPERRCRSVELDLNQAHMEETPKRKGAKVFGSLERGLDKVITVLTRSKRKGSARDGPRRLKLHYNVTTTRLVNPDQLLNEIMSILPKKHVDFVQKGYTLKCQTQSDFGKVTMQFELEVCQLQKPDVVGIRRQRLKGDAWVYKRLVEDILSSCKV
# T3 sequence (P48730 whole entry): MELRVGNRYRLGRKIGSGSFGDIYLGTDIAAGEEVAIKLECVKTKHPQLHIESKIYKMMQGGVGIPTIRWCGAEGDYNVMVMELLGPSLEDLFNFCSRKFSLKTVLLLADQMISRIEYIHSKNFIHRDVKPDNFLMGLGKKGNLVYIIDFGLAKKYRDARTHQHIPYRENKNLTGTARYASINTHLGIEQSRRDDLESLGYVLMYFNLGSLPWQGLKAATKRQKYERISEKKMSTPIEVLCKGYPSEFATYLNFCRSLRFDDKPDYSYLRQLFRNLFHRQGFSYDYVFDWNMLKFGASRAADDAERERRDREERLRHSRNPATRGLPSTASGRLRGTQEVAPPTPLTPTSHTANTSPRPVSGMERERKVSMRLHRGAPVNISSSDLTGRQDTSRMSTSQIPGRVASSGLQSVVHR
# Sequence of MAP4K5(h) (Q9Y4K4 whole entry): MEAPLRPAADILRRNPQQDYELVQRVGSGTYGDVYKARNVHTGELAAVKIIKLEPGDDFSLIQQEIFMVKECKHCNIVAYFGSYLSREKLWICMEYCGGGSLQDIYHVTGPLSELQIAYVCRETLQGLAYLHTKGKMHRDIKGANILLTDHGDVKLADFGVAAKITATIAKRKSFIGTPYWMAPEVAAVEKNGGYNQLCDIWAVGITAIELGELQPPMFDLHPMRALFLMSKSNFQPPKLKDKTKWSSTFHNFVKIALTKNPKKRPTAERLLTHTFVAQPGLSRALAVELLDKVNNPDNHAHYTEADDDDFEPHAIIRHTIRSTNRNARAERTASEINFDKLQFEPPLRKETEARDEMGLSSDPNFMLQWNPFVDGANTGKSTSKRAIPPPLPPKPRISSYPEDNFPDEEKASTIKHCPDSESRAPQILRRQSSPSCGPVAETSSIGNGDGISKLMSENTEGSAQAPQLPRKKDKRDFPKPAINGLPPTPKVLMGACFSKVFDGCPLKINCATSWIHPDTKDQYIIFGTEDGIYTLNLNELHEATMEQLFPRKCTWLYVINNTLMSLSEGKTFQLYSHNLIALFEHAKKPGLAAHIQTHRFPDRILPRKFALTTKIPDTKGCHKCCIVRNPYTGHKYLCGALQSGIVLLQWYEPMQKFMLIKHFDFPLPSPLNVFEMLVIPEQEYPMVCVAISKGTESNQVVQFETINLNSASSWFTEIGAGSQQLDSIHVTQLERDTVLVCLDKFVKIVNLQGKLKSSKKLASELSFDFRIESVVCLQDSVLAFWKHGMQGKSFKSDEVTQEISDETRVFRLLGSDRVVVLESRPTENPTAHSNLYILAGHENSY
# T1 sequence (P54646 whole entry): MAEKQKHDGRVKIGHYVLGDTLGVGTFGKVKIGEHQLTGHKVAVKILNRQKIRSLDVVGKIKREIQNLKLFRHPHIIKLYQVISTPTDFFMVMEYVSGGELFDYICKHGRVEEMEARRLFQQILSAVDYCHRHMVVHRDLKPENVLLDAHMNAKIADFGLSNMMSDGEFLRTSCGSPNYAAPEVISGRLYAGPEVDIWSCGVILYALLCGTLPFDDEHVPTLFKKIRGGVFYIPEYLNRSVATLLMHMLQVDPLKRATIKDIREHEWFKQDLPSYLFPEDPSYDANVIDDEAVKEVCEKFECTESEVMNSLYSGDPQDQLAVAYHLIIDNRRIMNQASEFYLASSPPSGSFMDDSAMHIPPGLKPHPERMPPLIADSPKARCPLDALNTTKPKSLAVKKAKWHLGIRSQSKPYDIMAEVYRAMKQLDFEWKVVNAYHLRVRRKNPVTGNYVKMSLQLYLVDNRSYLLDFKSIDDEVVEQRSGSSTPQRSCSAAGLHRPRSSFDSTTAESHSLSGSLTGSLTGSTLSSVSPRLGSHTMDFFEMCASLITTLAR
# T1 sequence (P54619 whole entry partner): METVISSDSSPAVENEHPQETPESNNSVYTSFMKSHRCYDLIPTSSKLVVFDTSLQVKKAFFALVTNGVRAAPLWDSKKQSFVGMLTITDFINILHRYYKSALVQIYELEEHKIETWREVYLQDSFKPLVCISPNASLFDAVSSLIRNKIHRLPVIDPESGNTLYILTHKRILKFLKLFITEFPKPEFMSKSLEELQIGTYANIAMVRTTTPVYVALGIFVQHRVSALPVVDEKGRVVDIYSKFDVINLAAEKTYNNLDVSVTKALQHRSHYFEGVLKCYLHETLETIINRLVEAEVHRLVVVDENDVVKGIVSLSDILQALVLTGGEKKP
# T1 sequence (Q9Y478 whole entry partner): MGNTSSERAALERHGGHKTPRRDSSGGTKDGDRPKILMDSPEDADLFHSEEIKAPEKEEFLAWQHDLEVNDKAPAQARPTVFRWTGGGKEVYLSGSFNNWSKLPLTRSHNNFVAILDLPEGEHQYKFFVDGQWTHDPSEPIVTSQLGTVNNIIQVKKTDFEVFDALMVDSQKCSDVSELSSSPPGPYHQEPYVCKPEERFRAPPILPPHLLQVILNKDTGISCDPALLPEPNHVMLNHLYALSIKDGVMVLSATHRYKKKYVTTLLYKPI
smiles,measurement,setting,value
C1=C(c2nc(-c3cnn(C4CCNCC4)c3)cn3cc(-c4ccccc4)nc23)CCOC1 [YL-939],remaining activity at 10 µM,AMPKα2(h),100%
same,remaining activity at 10 µM,Abl(Y253F)(h),123%
same,remaining activity at 10 µM,CK1δ(h),111%
same,remaining activity at 10 µM,CK1ε(h),74%
same,remaining activity at 10 µM,CSK(h),105%
same,remaining activity at 10 µM,CaMKIIβ(h),70%
same,remaining activity at 10 µM,DAPK2(h),138%
same,remaining activity at 10 µM,DDR1(h),98%
same,remaining activity at 10 µM,DMPK(h),107%
same,remaining activity at 10 µM,EphB2(h),81%
same,remaining activity at 10 µM,Flt3(h),86%
same,remaining activity at 10 µM,GRK1(h),109%
same,remaining activity at 10 µM,Hck(h),98%
same,remaining activity at 10 µM,LOK(h),95%
same,remaining activity at 10 µM,Lck(h),122%
same,remaining activity at 10 µM,MAP4K5(h),76%
same,remaining activity at 10 µM,MELK(h),91%
same,remaining activity at 10 µM,MRCKβ(h),84%
same,remaining activity at 10 µM,NIM1(h),85%
same,remaining activity at 10 µM,PKG1α(h),90%
same,remaining activity at 10 µM,PKR(h),97%
same,remaining activity at 10 µM,Ret (V804L)(h),81%
same,remaining activity at 10 µM,WNK1(h),85%
